Measurements as given in US7501430B2 (ArQule, Inc., priority 2006, dated 2009).

Biological target: T1, mutant B-RAF (Homo sapiens, UniProt P15056, V600E)
T1 construct: purchased Upstate (Charlottesville, Va.)
Assay: RAF biochemical assay (MEK-1 phosphorylation, anti-phospho MEK1/2 detection)
Settings: not given
Outline: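 Detection is by ELISA: after a 30 min room-temperature reaction, plate-captured GST-MEK-1 is probed with anti-phospho MEK1/2, then an AP-tagged secondary antibody with fluorescent Attophos read-out.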

T1 sequence (P15056 whole entry V600E): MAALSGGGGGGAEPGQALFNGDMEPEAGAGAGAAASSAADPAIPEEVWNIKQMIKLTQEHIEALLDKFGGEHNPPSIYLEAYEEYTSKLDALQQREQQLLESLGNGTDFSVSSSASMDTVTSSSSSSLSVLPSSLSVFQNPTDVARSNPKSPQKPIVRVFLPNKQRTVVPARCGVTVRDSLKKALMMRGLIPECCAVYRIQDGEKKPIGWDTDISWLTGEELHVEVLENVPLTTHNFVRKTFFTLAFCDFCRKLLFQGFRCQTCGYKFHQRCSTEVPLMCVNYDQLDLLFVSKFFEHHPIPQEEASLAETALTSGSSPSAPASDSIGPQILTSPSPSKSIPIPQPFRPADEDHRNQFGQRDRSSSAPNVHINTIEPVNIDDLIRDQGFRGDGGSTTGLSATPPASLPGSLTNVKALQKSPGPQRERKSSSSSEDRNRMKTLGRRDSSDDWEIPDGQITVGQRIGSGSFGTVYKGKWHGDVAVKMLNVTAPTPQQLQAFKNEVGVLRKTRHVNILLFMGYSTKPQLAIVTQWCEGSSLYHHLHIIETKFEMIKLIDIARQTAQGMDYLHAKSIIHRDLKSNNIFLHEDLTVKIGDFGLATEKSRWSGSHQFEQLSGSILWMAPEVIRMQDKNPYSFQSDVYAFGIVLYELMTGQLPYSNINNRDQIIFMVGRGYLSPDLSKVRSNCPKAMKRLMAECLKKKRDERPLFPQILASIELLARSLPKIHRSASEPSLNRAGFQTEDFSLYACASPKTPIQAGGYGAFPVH

Structure (SMILES) | IC50 [nM]
CC(C)CC(=O)N1CCC[C@@H](Nc2nccc(-c3c(-c4ccc(F)cc4)nc4occn34)n2)C1 [Example 40, 4-[6-(4-fluorophenyl)imi-dazo[2,1-b][1,3]oxazol-5-yl]-N-[(3R)-1-(3-methylbuta-noyl)piperidin-3-yl]pyrimidin-2-amine] | 142
O=C(c1ccco1)N1CCC[C@@H](Nc2nccc(-c3c(-c4ccc(F)cc4)nc4occn34)n2)C1 [Example 33, 4-[6-(4-fluorophenyl)imi-dazo[2,1-b][1,3]oxazol-5-yl]-N-[(3R)-1-(2-furoyl)piperidin-3-yl]pyrimidin-2-amine] | 2170

Same assay, conditions: @ 3 uM

Structure (SMILES) | inhibition at 3 µM [%]
c1ccc(-c2ccc(-c3nc4sccn4c3-c3ccnc(NC4CCNCC4)n3)cc2)cc1 [Example 250, 4-(6-biphenyl-4-ylimidazo[2,1-b][1,3]thiazol-5-yl)-N-piperidin-4-ylpyrimidin-2-amine] | 2

Same assay, conditions: @ 10 uM

Structure (SMILES) | Mutant B-RAF % inhibition
O=S(=O)(c1ccccc1)N1CCC[C@@H](Nc2nccc(-c3c(-c4ccc(F)cc4)nc4occn34)n2)C1 [Example 42, 4-[6-(4-fluorophenyl)imi-dazo[2,1-b][1,3]oxazol-5-yl]-N-[(3R)-1-(phenylsulfonyl)piperidin-3-yl]pyrimidin-2-amine] | 68 @ 10 uM %

Same assay, conditions: @ 10 uM; read-out: Mutant B-RAF % inhibition

Structure (SMILES) | inhibition at 10 µM [%]
COc1ccc(OC)c(-c2nc3sccn3c2-c2ccnc(N[C@@H]3CCCN(S(=O)(=O)c4ccc(Cl)cc4)C3)n2)c1 [Example 144, N-{(3R)-1-[(4-chlorophenyl)sulfonyl]piperidin-3-yl}-4-[6-(2,5-dimethoxyphenyl)imidazo[2,1-b][1,3]thiazol-5-yl]pyrimidin-2-amine] | 69
COc1ccc(-c2nc3sccn3c2-c2ccnc(N[C@@H]3CCCNC3)n2)cc1 [Example 106, 4-[6-(4-methoxyphenyl)imidazo[2,1-b][1,3]thiazol-5-yl]-N-[(3R)-piperidin-3-yl]pyrimidin-2-amine] | 27
Fc1ccc(CN2CCC(Nc3nccc(-c4c(-c5ccc(F)cc5)nc5sccn45)n3)CC2)cc1 [Example 293, N-[1-(4-fluorobenzyl)piperidin-4-yl]-4-[6-(4-fluorophenyl)imidazo[2,1-b][1,3]thiazol-5-yl]pyrimidin-2-amine] | 14
CN(C)c1ccc(NC(=O)N2CCC[C@@H](Nc3nccc(-c4c(-c5ccc(F)cc5)nc5occn45)n3)C2)cc1 [Example 24, (3R)-N-[4-(dimethyl-amino)phenyl]-3-({4-[6-(4-fluorophenyl)imidazo[2,1-b][1,3]oxazol-5-yl]pyrimidin-2-yl}amino)piperidine-1-carboxamide] | 60
COc1cccc(-c2nc3sccn3c2-c2ccnc(NC3CCN(C(=O)NCc4ccccc4)CC3)n2)c1 [Example 233, N-benzyl-4-({4-[6-(3-methoxyphenyl)imidazo[2,1-b][1,3]thiazol-5-yl]pyrimidin-2-yl}amino)piperidine-1-carboxamide] | 53
COc1cccc(-c2nc3sccn3c2-c2ccnc(N[C@@H]3CCNC3)n2)c1 [Example 279, 4-[6-(3-methoxyphenyl)imidazo[2,1-b][1,3]thiazol-5-yl]-N-[(3R)-pyrrolidin-3-yl]pyrimidin-2-amine] | 36
CC(=O)NCC(=O)N1CCC(Nc2nccc(-c3c(-c4ccc(F)cc4)nc4occn34)n2)CC1 [Example 211, N-{2-[4-({4-[6-(4-fluorophenyl)imidazo[2,1-b][1,3]oxazol-5-yl]pyrimidin-2-yl}amino)piperidin-1-yl]-2-oxoethyl}acetamide] | 29
CN(C)c1ccc(C(=O)N2CCC(Nc3nccc(-c4c(-c5ccc(F)c(F)c5)nc5sccn45)n3)CC2)cc1 [Example 221, 4-[6-(3,4-difluorophenyl)imidazo[2,1-b][1,3]thiazol-5-yl]-N-{1-[4-(dimethylamino)benzoyl]piper-idin-4-yl}pyrimidin-2-amine] | 42
O=S(=O)(c1ccc(Cl)cc1)N1CC[C@@H](Nc2nccc(-c3c(-c4ccc(F)cc4)nc4sccn34)n2)C1 [Example 278, N-{(3R)-1-[(4-chlorophenyl)sulfonyl]pyrro-lidin-3-yl}-4-[6-(4-fluorophenyl)imidazo[2,1-b][1,3]thiazol-5-yl]pyrimidin-2-amine] | 10
Cc1nc(C)c(S(=O)(=O)N2CCC(Nc3nccc(-c4c(-c5ccc(F)cc5)nc5occn45)n3)CC2)s1 [Example 230, N-{1-[(2,4-dimethyl-1,3-thiazol-5-yl)sulfonyl]piperidin-4-yl)-4-[6-(4-fluorophenyl)imidazo[2,1-b][1,3]oxazol-5-yl]pyrimidin-2-amine] | 50
Cc1cn2c(-c3ccnc(N[C@@H]4CCCN(C(=O)NCc5ccco5)C4)n3)c(-c3ccc(F)cc3)nc2s1 [Example 93, (3R)-3-({4-[6-(4-fluoro-phenyl)-2-methylimidazo[2,1-b][1,3]thiazol-5-yl]pyrimidin-2-yl}amino)-N-(2-furylmethyl)piperidine-1-carboxamide] | 61

Same assay, conditions: read-out: Mutant B-RAF % inhibition

Structure (SMILES) | inhibition at 10 µM [%]
COc1cccc(-c2nc3sccn3c2-c2ccnc(N[C@@H]3CCCN(C(=O)NCc4ccco4)C3)n2)c1 [Example 81, (3R)-N-(2-furylmethyl)-3-({4-[6-(3-methoxyphenyl)imi-dazo[2,1-b][1,3]thiazol-5-yl]pyrimidin-2-yl}amino)piperidine-1-carboxamide] | 50

Same assay, conditions: read-out: Mutant B-RAF IC50

IC50 [nM] | Structure (SMILES)
3210 | COc1cccc(-c2nc3occn3c2-c2ccnc(NC3CCNCC3)n2)c1 [Example 337, 4-[6-(3-methoxyphenyl)imidazo[2,1-b][1,3]oxazol-5-yl]-N-piperidin-4-ylpyrimidin-2-amine]
6990 | COc1cccc(-c2nc3occn3c2-c2ccnc(NC3CCN(S(=O)(=O)C4CC4)CC3)n2)c1 [Example 338, N-[1-(cyclopropylsulfonyl)piperidin-4-yl]-4-[6-(3-methoxyphenyl)imidazo[2,1-b][1,3]oxazol-5-yl]pyrimidin-2-amine]
11 | O=S(=O)(C1CC1)N1CCC(Nc2nccc(-c3c(-c4cccc(O)c4)nc4sccn34)n2)CC1 [Example 315, 3-[5-(2-{[1-(cyclopropylsulfonyl)piperidin-4-yl]amino}pyrimidin-4-yl)imidazo[2,1-b][1,3]thiazol-6-yl}phenol]
2 | O=S(=O)(c1ccc(Cl)cc1)N1CCC[C@@H](Nc2nccc(-c3c(-c4cccc(O)c4)nc4sccn34)n2)C1 [Example 288, 3-{5-[2-({(3R)-1-[(4-chlorophenyl)sulfonyl]piperidin-3-yl}amino)pyrimidin-4-yl]imidazo[2,1-b][1,3]thiazol-6-yl}phenol]
1790 | CCCNC(=O)N1CCC(Nc2nccc(-c3c(-c4cccc(O)c4)nc4sccn34)n2)CC1 [Example 355, 4-({4-[6-(3-hydroxyphenyl)imidazo[2,1-b][1,3]thiazol-5-yl]pyrimidin-2-yl}amino)-N-propylpiperidine-1-carboxamide]
3 | O=S(=O)(c1ccc(Cl)cc1)N1CCC[C@@H](Nc2nccc(-c3c(-c4ccc(F)c(O)c4)nc4sccn34)n2)C1 [Example 353, 5-{5-[2-({(3R)-1-[(4-chlorophenyl)suifonyl]piperidin-3-yl}amino)pyrimidin-4-yl]imidazo[2,1-b][1,3]thiazol-6-yl}-2-fluorophenol]
3 | O=S(=O)(c1cccs1)N1CCC[C@@H](Nc2nccc(-c3c(-c4cccc(O)c4)nc4sccn34)n2)C1 [Example 371, 3-[5-(2-{[(3R)-1-(2-thienylsulfonyl)piperidin-3-yl]amino}pyrimidin-4-yl)imidazo[2,1-b][1,3]thiazol-6-yl]phenol]
30 | Cc1nc(-c2cccc(-c3nc4sccn4c3-c3ccnc(N[C@@H]4CCCNC4)n3)c2)no1 [Example 365, 4-{6-[3-(5-methyl-1,2,4-oxadia-zol-3-yl)phenyl]imidazo[2,1-b][1,3]thiazol-5-yl}-N-[(3R)-piperidin-3-yl]pyrimidin-2-amine]
18 | NC(=O)c1ccc(S(=O)(=O)N2CCC(Nc3nccc(-c4c(-c5cccc(O)c5)nc5occn45)n3)CC2)cc1 [Example 319, 4-{[4-({4-[6-(3-hydroxyphenyl)imidazo[2,1-b][1,3]oxazol-5-yl]pyrimidin-2-yl}amino)piperidin-1-yl]sulfonyl)benzamide]

Continued, molecule first:

Structure (SMILES) | IC50 [nM]
O=C(NCCc1ccc(F)cc1)N1CCC(Nc2nccc(-c3c(-c4ccc(F)cc4)nc4occn34)n2)CC1 [Example 184, N-[2-(4-fluorophenyl)ethyl]-4-({4-[6-(4-fluorophenyl)imidazo[2,1-b][1,3]oxazol-5-yl]pyrimidin-2-yl}amino)piperidine-1-carboxamide] | 1280
O=S(=O)(c1ccc(F)cc1)N1CCC(Nc2nccc(-c3c(-c4ccc(F)cc4)nc4sccn34)n2)CC1 [Example 153, 4-[6-(4-fiuorophenyl)imidazo[2,1-b][1,3]thiazol-5-yl]-N-{1-[(4-fluorophenyl)sulfonyl]piperidin-4-yl}pyrimidin-2-amine] | 78
CCNC(=O)N1CCC(Nc2nccc(-c3c(-c4ccc(F)cc4)nc4sc(C)cn34)n2)CC1 [Example 220, N-ethyl-4-({4-[6-(4-fluorophenyl)-2-methylimidazo[2,1-b][1,3]thiazol-5-yl]pyrimidin-2-yl}amino)piperidine-1-carboxamide] | 428
O=S(=O)(c1ccc(Cl)cc1)N1CCC[C@@H](Nc2nccc(-c3c(-c4ccccc4O)nc4sccn34)n2)C1 [Example 107, 2-{5-[2-({(3R)-1-[(4-chlorophenyl)sulfonyl]piperidin-3-yl}amino)pyrimidin-4-yl]imidazo[2,1-b][1,3]thiazol-6-yl}phenol] | 33
COc1cccc(-c2nc3sccn3c2-c2ccnc(N[C@@H]3CCCN(S(C)(=O)=O)C3)n2)c1 [Example 151, 4-[6-(3-methoxyphenyl)imidazo[2,1-b][1,3]thiazol-5-yl]-N-[(3R)-1-(methylsulfonyl)piperidin-3-yl]pyrimidin-2-amine] | 850
O=C(C1CCCCC1)N1CCC[C@@H](Nc2nccc(-c3c(-c4ccc(F)cc4)nc4occn34)n2)C1 [Example 31, N-[(3R)-1-(cyclohexylcarbonyl)piperidin-3-yl]-4-[6-(4-fluorophenyl)imidazo[2,1-b][1,3]oxazol-5-yl]pyrimidin-2-amine] | 2950
